According to US12428415B2, “Matriptase 2 inhibitors and uses thereof” (Disc Medicine, Inc., priority 2018, dated 2025):

Each compound was assayed against T1, Human Recombinant Matriptase 2 (Homo sapiens, UniProt Q8IU80) (assay: Matriptase 2 fluorescence based inhibition assay, Method B (50 mM TRIS pH 7.5, 150 mM NaCl, 0.01% gelatin)). Conditions: 1 uM compound; Assay Used = B (Method B).
T1 construct: purchased Enzo Life Sciences (an in-house preparation was also used) ALX-201-752-1
T1 sequence (Q8IU80 1-811): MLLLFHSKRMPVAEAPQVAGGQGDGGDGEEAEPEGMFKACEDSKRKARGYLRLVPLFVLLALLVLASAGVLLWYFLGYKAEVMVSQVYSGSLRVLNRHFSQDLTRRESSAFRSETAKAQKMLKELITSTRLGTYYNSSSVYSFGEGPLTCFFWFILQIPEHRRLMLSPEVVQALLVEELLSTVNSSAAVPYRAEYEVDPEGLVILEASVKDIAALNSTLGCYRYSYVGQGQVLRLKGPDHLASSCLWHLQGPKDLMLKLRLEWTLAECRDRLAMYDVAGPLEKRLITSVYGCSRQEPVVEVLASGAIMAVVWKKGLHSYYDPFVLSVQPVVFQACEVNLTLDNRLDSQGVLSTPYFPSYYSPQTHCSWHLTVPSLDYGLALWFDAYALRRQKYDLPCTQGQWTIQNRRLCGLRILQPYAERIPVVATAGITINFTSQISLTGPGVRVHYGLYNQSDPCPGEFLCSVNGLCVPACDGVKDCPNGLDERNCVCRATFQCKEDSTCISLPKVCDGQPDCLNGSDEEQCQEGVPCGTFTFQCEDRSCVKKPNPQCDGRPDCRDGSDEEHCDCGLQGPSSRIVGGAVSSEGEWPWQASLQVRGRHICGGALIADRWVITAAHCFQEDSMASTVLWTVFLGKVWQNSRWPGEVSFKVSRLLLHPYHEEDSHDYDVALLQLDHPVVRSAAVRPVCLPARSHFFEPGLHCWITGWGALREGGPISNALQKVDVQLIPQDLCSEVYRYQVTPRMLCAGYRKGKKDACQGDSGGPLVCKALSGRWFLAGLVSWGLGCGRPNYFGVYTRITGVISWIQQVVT
Format: biochemical
Method: Test compounds were evaluated for their potential to inhibit Human Recombinant Matriptase 2 (in-house and commercial protein from Enzo Life Sciences—cat log -ALX-201-752-1) using fluorescence based assay. The concentration of Recombinant Matriptase 2 and the substrate used in the assay was: 7 nM (commercial) and 15 nM (Inhouse Matriptase 2) and 100 μM (Boc-Gln-Ala-Arg-7-amido-4-methyl coumarin hydrobromide—Cat log: B4153-Sigma and I-1550 from Bachem) respectively. The assay buffer used was 50 mM TRIS pH 7.5, 150 mM NaCl, 0.01% gelatin (G1393 Sigma). The assay was performed using 384 well black flat bottom plate from grenier (Cat log: 781076) at 25° C. The enzyme and compound preincubated for 30 mins, plate was read 60 mins after substrate addition at wavelength Ex: 360/Em:480 nm. The final assay volume of was 20 μl. Stock solution of compounds were initially prepared in DMSO and appropriate dilutions were made for screening and IC50 determination (final DMSO conc in the assay was 1%). All the measurements were carried out using the Spectramax M5, Molecular devices. The compounds were screened at 1 and 10 μM concentration and IC50 was determined for the interested compounds.
To determine IC50 values, dose response curves were generated by plotting percentage inhibition as a function of inhibitor concentration and the data was fitted to sigmoidal non-linear regression equation (variable slope) using Graph Pad prism software V7.

In the case of `N=C(N)c1ccc2cc(C(=O)N[C@H]3CC[C@H](N)CC3)n(Cc3ccc(C(=O)O)c4ccccc34)c2c1` [Compound I-673], the “Mar-2 % inhibition at 1 uM” value is reported as “B (B represents 25%≤I≤50%)”.

Same assay, conditions: 1 uM compound; Assay Used = B (Method B); read-out: Mar-2 % inhibition at 1 uM

First: N=C(N)c1ccc2cc(C(=O)N[C@H]3CC[C@H](N)CC3)n(Cc3cnoc3-c3ccc(Cl)s3)c2c1 [Compound I-755]
Second: CC(C)(C)Sc1cccc2c(Cn3c(C(=O)N[C@H]4CC[C@H](N)CC4)cc4ccc(C(=N)N)cc43)cccc12 [Compound I-739]
The inhibition at 1 µM of the first is lower: 25 to 50% for the first, 75 to 100% for the second.

`NCc1ccc2cc(C(=O)N[C@H]3CC[C@H](N)CC3)n(Cc3cc(Oc4ncccn4)cc4ccccc34)c2c1` [Compound I-605] and `NCc1ccc2cc(C(=O)N[C@H]3CC[C@@H](N)CC3)n(Cc3cccc4ccccc34)c2c1` [Compound I-743] fall in the same range of inhibition at 1 µM: 50 to 75% for the first, 50 to 75% for the second.

`N=C(N)c1ccc2cc(C(=O)O)n(Cc3cc(Oc4ccsc4)cc4ccccc34)c2c1` [Compound I-655] and `N=C(N)c1ccc2cc(C(=O)O)n(Cc3cc(Oc4ccncn4)cc4ccccc34)c2c1` [Compound I-618] fall in the same range of inhibition at 1 µM: 50 to 75% for the first, 50 to 75% for the second.

First: N=C(N)c1ccc2cc(C(=O)N[C@H]3CC[C@H](N)CC3)n(Cc3cccc4cc(OCCCc5ccccc5)ccc34)c2c1 [Compound I-770]
Second: N=C(N)c1ccc2cc(C(=O)N[C@H]3CC[C@H](N)CC3)n(Cc3cc(OS(=O)(=O)c4ccccc4)cc4ccccc34)c2c1 [Compound I-608]
The inhibition at 1 µM of the first is lower: 50 to 75% for the first, 75 to 100% for the second.

First: N=C(N)c1ccc2cc(C(=O)O)n(Cc3cc(Oc4cnccn4)cc4ccccc34)c2c1 [Compound I-625]
Second: CCOC(=O)c1cc2ccc(/C(N)=N\O)cc2n1Cc1cc(Oc2ncccn2)cc2ccccc12 [Compound I-630, ethyl (Z)-6-(N′-hydroxycarbamimidoyl)-1-((3-(pyrimidin-2-yloxy)naphthalen-1-yl)methyl)-1H-indole-2-carboxylate]
The inhibition at 1 µM of the first is higher: 50 to 75% for the first, 0 to 25% for the second.

`N=C(N)c1ccc2cc(C(=O)NCc3ccncc3)n(Cc3cccc4ccccc34)c2c1` [Compound I-758] and `N=C(N)c1ccc2cc(C(=O)Nc3ccncc3)n(Cc3cccc4ccccc34)c2c1` [Compound I-763] fall in the same range of inhibition at 1 µM: 50 to 75% for the first, 50 to 75% for the second.

First: Cn1c(C(=O)O)c(Cc2cc(Oc3ccccc3)cc3ccccc23)c2cc(C(=N)N)ccc21 [Compound I-606]
Second: CCOC(=O)c1cc2ccc(C(=N)NC(=O)OCC(C)C)cc2n1Cc1cc(Oc2ccccc2)cc2ccccc12 [Compound I-627]
The inhibition at 1 µM of the first is higher: 25 to 50% for the first, 0 to 25% for the second.

First: N=C(N)c1ccc2cc(C(=O)N[C@H]3CC[C@H](N)CC3)n(Cc3cc(Oc4ccsc4)cc4ccccc34)c2c1 [Compound I-631]
Second: N=C(N)c1ccc2cc(C(=O)N[C@H]3CCCc4ccccc43)n(Cc3cccc4ccccc34)c2c1 [Compound I-764]
The inhibition at 1 µM of the first is higher: 75 to 100% for the first, 0 to 25% for the second.

`N=C(N)c1ccc2cc(-c3nnnn3CCO)n(Cc3cccc4ccccc34)c2c1` [Compound I-710] and `N=C(N)c1ccc2cc(C(=O)OCCNC(N)=O)n(Cc3cccc4ccccc34)c2c1` [Compound I-597] fall in the same range of inhibition at 1 µM: 75 to 100% for the first, 75 to 100% for the second.

Same assay, conditions: 1 uM compound; Assay Used = B; read-out: Mar-2 % inhibition at 1 uM

`N=C(N)c1ccc2cc(C(=O)O[C@H]3CC[C@H](N)CC3)n(Cc3cccc4ccccc34)c2c1` [Compound I-485, (1r,4r)-4-aminocyclohexyl 6-carbamimidoyl-1-(naphthalen-1-ylmethyl)-1H-indole-2-carboxylate] and `N=C(N)c1ccc2cc(C(N)=O)n(Cc3cccc4ccccc34)c2c1` [Compound I-437] fall in the same range of inhibition at 1 µM: 75 to 100% for the first, 75 to 100% for the second.

First: N=C(N)c1ccc2cc(C(=O)N3CC[C@@H](O)C3)n(Cc3cccc4ccccc34)c2c1 [Compound I-441]
Second: CN1CCC(CNC(=O)c2cc3ccc(C(=N)N)cc3n2Cc2cccc3ccccc23)CC1 [Compound I-460, 6-carbamimidoyl-N-((1-methylpiperidin-4-yl)methyl)-1-(naphthalen-1-ylmethyl)-1H-indole-2-carboxamide]
The inhibition at 1 µM of the first is lower: 25 to 50% for the first, 75 to 100% for the second.

`CC(C)(C)OC(=O)NC(=N)c1ccc2cc(C(=O)N3CC[C@H](NC(=O)OC(C)(C)C)C3)n(Cc3cccc4ccccc34)c2c1` (stereo in doubt) [Compound I-428] and `CC(C)(C)OC(=O)NC(=N)c1ccc2cc(C(=O)Nc3ccc(NC(=O)c4ccccn4)cc3)n(Cc3cccc4ccccc34)c2c1` [Compound I-419] fall in the same range of inhibition at 1 µM: 0 to 25% for the first, 0 to 25% for the second.

First: N=C(N)c1ccc2cc(C(=O)NCCCN)n(Cc3cccc4ccccc34)c2c1 [Compound I-466]
Second: NCc1ccc2cc(C(=O)NCC3CCNCC3)n(Cc3cccc4ccccc34)c2c1 [Compound I-534]
The inhibition at 1 µM of the first is higher: 75 to 100% for the first, 25 to 50% for the second.

First: CCOC(=O)NC(=N)c1ccc2cc(C(=O)NC3CCN(C)CC3)n(Cc3cc(Oc4ncccn4)cc4ccccc34)c2c1 [Compound I-549]
Second: N=C(N)c1ccc2cc(C(=O)Nc3nnn[nH]3)n(Cc3cc(Oc4ncccn4)cc4ccccc34)c2c1 [Compound I-572]
The inhibition at 1 µM of the first is lower: 25 to 50% for the first, 50 to 75% for the second.

`N=C(N)c1ccc2c(C(=O)N[C@H]3CC[C@H](N)CC3)cn(Cc3cccc4ccccc34)c2c1` [Compound I-519, N-((1r,4r)-4-aminocyclohexyl)-6-carbamimidoyl-1-(naphthalen-1-ylmethyl)-1H-indole-3-carboxamide] and `N#Cc1c(C(=O)N[C@H]2CC[C@H](N)CC2)n(Cc2cccc3ccccc23)c2cc(C(=N)N)ccc12` [Compound I-514, N-((1r,4r)-4-aminocyclohexyl)-6-carbamimidoyl-3-cyano-1-(naphthalen-1-ylmethyl)-1H-indole-2-carboxamide] fall in the same range of inhibition at 1 µM: 0 to 25% for the first, 0 to 25% for the second.

First: N=C(N)c1ccc2cc(S(=O)(=O)N(Cc3cccc4ccccc34)[C@H]3CC[C@H](N)CC3)n(Cc3cccc4ccccc34)c2c1 [Compound I-523]
Second: N=C(N)c1ccc2cc(C(=O)N[C@H]3CC[C@H](N)CC3)n(Cc3ccc(C(N)=O)c4ccccc34)c2c1 [Compound I-509]
The inhibition at 1 µM of the first is lower: 0 to 25% for the first, 50 to 75% for the second.

First: Cn1nc(C(F)(F)F)c(C=O)c1Oc1cc(Cn2c(C(=O)O)cc3ccc(C(=N)N)cc32)c2ccccc2c1 [Compound I-584]
Second: Cc1cc(C)nc(Oc2cc(Cn3c(C(=O)O)cc4ccc(C(=N)N)cc43)c3ccccc3c2)n1 [Compound I-570]
The inhibition at 1 µM of the first is lower: 0 to 25% for the first, 25 to 50% for the second.

`CC(C)(C)OC(=O)N[C@H]1CC[C@H](NC(=O)c2cc3ccc(C(=N)N)cc3n2CCc2ccc3ccccc3c2)CC1` [Compound I-405] and `N=C(N)c1ccc2cc(C(=O)O)n(Cc3cc(S(N)(=O)=O)cc4ccccc34)c2c1` [Compound I-548] fall in the same range of inhibition at 1 µM: 25 to 50% for the first, 25 to 50% for the second.

Same assay, conditions: compound at 1 uM; Assay Used: B; read-out: Mar-2 % inhibition at 1 uM

Compared with `CCOC(=O)c1cc(Cn2c(C(=O)N[C@H]3CC[C@H](N)CC3)cc3ccc(C(=N)N)cc32)c2ccccc2c1` [Compound I-812], `CN(C)C(=O)c1ccc(Cn2c(C(=O)N[C@H]3CC[C@H](N)CC3)cc3ccc(C(=N)N)cc32)c2ccccc12` [Compound I-798] is lower in inhibition at 1 µM: 75 to 100% for the first, 50 to 75% for the second.

First: COc1cccc2c(Cn3c(C(=O)N[C@H]4CC[C@H](N)CC4)cc4ccc(C(=N)N)cc43)cccc12 [Compound I-797]
Second: N=C(NN)c1ccc2cc(C(=O)N[C@H]3CC[C@H](N)CC3)n(Cc3cccc4ccccc34)c2c1 [Compound I-827, N-((1r,4r)-4-aminocyclohexyl)-6-(hydrazineyl(imino)methyl)-1-(naphthalen-1-ylmethyl)-1H-indole-2-carboxamide]
The inhibition at 1 µM of the first is higher: 75 to 100% for the first, 25 to 50% for the second.

Same assay, conditions: read-out: Mar-2 % inhibition at 1 uM

`CCOC(=O)c1cc2ccc(C(=N)NC(=O)Oc3ccccc3)cc2n1Cc1cc(Oc2ccsc2)cc2ccccc12` [Compound I-579] gave an inhibition at 1 µM of 0 to 25%.
